# Measured values reported in the supplement of paper PMC9663587.
# Experiments:
# [1] = compound: CC(=O)c1c(C)c2cnc(Nc3ccc(N4CCNCC4)cn3)nc2n(C2CCCC2)c1=O
# Volasertib/BI6727 = compound: CC[C@@H]1C(=O)N(C)c2cnc(Nc3ccc(C(=O)N[C@H]4CC[C@H](N5CCN(CC6CC6)CC5)CC4)cc3OC)nc2N1C(C)C [Volasertib/BI6727]
# THZ531 [2] = compound: T1, CN(C)C/C=C/C(=O)Nc1ccc(C(=O)N2CCC[C@@H](Nc3ncc(Cl)c(-c4c[nH]c5ccccc45)n3)C2)cc1 [THZ531]
# Dasatinib = compound: Cc1nc(Nc2ncc(C(=O)Nc3c(C)cccc3Cl)s2)cc(N2CCN(CCO)CC2)n1 [Dasatinib]
# [3] = compound: CO[C@@H](C)Cn1c(=O)n(C)c2cnc3ccc(-c4cncc(C(C)(C)O)c4)cc3c21
# Doxorubicin = compound: COc1cccc2c1C(=O)c1c(O)c3c(c(O)c1C2=O)C[C@@](O)(C(=O)CO)C[C@@H]3O[C@H]1C[C@H](N)[C@H](O)[C@H](C)O1 [Doxorubicin]
# BSJ-01-175 = compound: CN(C)C/C=C/C(=O)Nc1ccc(O[C@@H]2CCC[C@@H](Nc3ncc(Cl)c(-c4c[nH]c5ccccc45)n3)C2)cc1 [BSJ-01-175]
# Rucaparib = compound: CNCc1ccc(-c2[nH]c3cc(F)cc4c3c2CCNC4=O)cc1 [Rucaparib]
# INK128/MLN0128 = compound: CC(C)n1nc(-c2ccc3oc(N)nc3c2)c2c(N)ncnc21 [INK128/MLN0128]
# [4] = compound: CC(=O)Nc1cccc(-n2c(=O)n(C3CC3)c(=O)c3c(Nc4ccc(I)cc4F)n(C)c(=O)c(C)c32)c1
# AZD2014 = compound: CNC(=O)c1cccc(-c2ccc3c(N4CCOC[C@@H]4C)nc(N4CCOC[C@@H]4C)nc3n2)c1 [AZD2014]
# Vorinostat = compound: O=C(CCCCCCC(=O)Nc1ccccc1)NO [Vorinostat]
# Ceritinib/LDK378 = compound: Cc1cc(Nc2ncc(Cl)c(Nc3ccccc3S(=O)(=O)C(C)C)n2)c(OC(C)C)cc1C1CCNCC1 [Ceritinib/LDK378]
# Taselisib/GDC0032 = compound: Cc1nc(-c2cn3c(n2)-c2ccc(-c4cnn(C(C)(C)C(N)=O)c4)cc2OCC3)n(C(C)C)n1 [Taselisib/GDC0032]
# BSJ-03-123 [5] = compound: T2, CC(=O)c1c(C)c2cnc(Nc3ccc(N4CCN(CCOCCOCCOCCNC(=O)COc5cccc6c5C(=O)N(C5CCC(=O)NC5=O)C6=O)CC4)cn3)nc2n(C2CCCC2)c1=O [BSJ-03-123]
# Neratinib/HKI272 [6] = compound: T3, CCOc1cc2ncc(C#N)c(Nc3ccc(OCc4ccccn4)c(Cl)c3)c2cc1NC(=O)/C=C/CN(C)C [Neratinib/HKI272]
# THZ531 [7] = compound: T1, THZ531; assay: increase in dead-cell fraction, 72 h; higher = more death;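 further: breast cancer cell lines in 384-well plates, stained with Hoechst plus LIVE/DEAD far red dye and imaged, cells above an LDR intensity threshold counted dead, Hoechst-negative corpses included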
# THZ1 = compound: CN(C)C/C=C/C(=O)Nc1ccc(C(=O)Nc2cccc(Nc3ncc(Cl)c(-c4c[nH]c5ccccc45)n3)c2)cc1 [THZ1]; assay: as above
# YKL-5-124 = compound: C=CC(=O)Nc1ccc(C(=O)Nc2[nH]nc3c2CN(C(=O)N[C@H](CN(C)C)c2ccccc2)C3(C)C)cc1 [YKL-5-124]; assay: as above
# [8] = compound: CCc1cnn2c(NCc3ccc[n+]([O-])c3)cc(N3CCCC[C@H]3CCO)nc12; assay: as above
# BSJ-03-123 [9] = compound: T2, BSJ-03-123; assay: as above
# Neratinib/HKI272 [10] = compound: T3, Neratinib/HKI272; assay: as above
# 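Wherever GR50, 72 h is given: breast cancer and non-malignant breast epithelial cell lines, Deep Dye Drop or Dye Drop imaging, nine half-log doses, GR normalized to time-zero plates and DMSO-only controls.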
cell line,measurement,setting,value
HCC70,"GR50, 72 h",[1],> 3.16 µM
same,"GR50, 72 h",Volasertib/BI6727,0.0066 µM
same,"GR50, 72 h",THZ531 [2],0.0623 µM
same,"GR50, 72 h",Dasatinib,0.00964 µM
same,"GR50, 72 h",[3],0.00263 µM
same,"GR50, 72 h",Doxorubicin,0.0108 µM
same,"GR50, 72 h",BSJ-01-175,0.0192 µM
same,"GR50, 72 h",Rucaparib,> 10 µM
same,"GR50, 72 h",INK128/MLN0128,0.0048 µM
same,"GR50, 72 h",[4],0.0019 µM
same,"GR50, 72 h",AZD2014,< 0.001 µM
same,"GR50, 72 h",Vorinostat,0.413 µM
same,"GR50, 72 h",Ceritinib/LDK378,3.19 µM
same,"GR50, 72 h",Taselisib/GDC0032,0.161 µM
same,"GR50, 72 h",BSJ-03-123 [5],4.15 µM
same,"GR50, 72 h",Neratinib/HKI272 [6],0.16 µM
same,increase in dead-cell fraction,THZ531 [7]; 0.0001 µM,-0.0083
same,increase in dead-cell fraction,THZ531 [7]; 0.0003162 µM,0.004
same,increase in dead-cell fraction,THZ531 [7]; 0.001 µM,-0.0113
same,increase in dead-cell fraction,THZ531 [7]; 0.003162 µM,-0.0062
same,increase in dead-cell fraction,THZ531 [7]; 0.01 µM,-0.0005
same,increase in dead-cell fraction,THZ531 [7]; 0.03162 µM,0.0092
same,increase in dead-cell fraction,THZ531 [7]; 0.1 µM,0.227
same,increase in dead-cell fraction,THZ531 [7]; 0.3162 µM,0.623
same,increase in dead-cell fraction,THZ531 [7]; 1 µM,0.805
same,increase in dead-cell fraction,THZ1; 0.0001 µM,0.0011
same,increase in dead-cell fraction,THZ1; 0.0003162 µM,0.0017
same,increase in dead-cell fraction,THZ1; 0.001 µM,-0.0087
same,increase in dead-cell fraction,THZ1; 0.003162 µM,0.0017
same,increase in dead-cell fraction,THZ1; 0.01 µM,0.0017
same,increase in dead-cell fraction,THZ1; 0.03162 µM,0.227
same,increase in dead-cell fraction,THZ1; 0.1 µM,0.676
same,increase in dead-cell fraction,THZ1; 0.3162 µM,0.872
same,increase in dead-cell fraction,THZ1; 1 µM,0.868
same,increase in dead-cell fraction,YKL-5-124; 0.001 µM,0.0881
same,increase in dead-cell fraction,YKL-5-124; 0.003162 µM,0.0945
same,increase in dead-cell fraction,YKL-5-124; 0.01 µM,0.148
same,increase in dead-cell fraction,YKL-5-124; 0.03162 µM,0.205
same,increase in dead-cell fraction,YKL-5-124; 0.1 µM,0.254
same,increase in dead-cell fraction,YKL-5-124; 0.3162 µM,0.285
same,increase in dead-cell fraction,YKL-5-124; 1 µM,0.376
same,increase in dead-cell fraction,YKL-5-124; 3.162 µM,0.41
same,increase in dead-cell fraction,YKL-5-124; 10 µM,0.726
same,increase in dead-cell fraction,[8]; 0.0001 µM,0.0046
same,increase in dead-cell fraction,[8]; 0.0003162 µM,0.0037
same,increase in dead-cell fraction,[8]; 0.001 µM,-0.003
same,increase in dead-cell fraction,[8]; 0.003162 µM,-0.0058
same,increase in dead-cell fraction,[8]; 0.01 µM,0.0306
same,increase in dead-cell fraction,[8]; 0.03162 µM,0.699
same,increase in dead-cell fraction,[8]; 0.1 µM,0.734
same,increase in dead-cell fraction,[8]; 0.3162 µM,0.721
same,increase in dead-cell fraction,[8]; 1 µM,0.74
same,increase in dead-cell fraction,BSJ-03-123 [9]; 0.001 µM,-0.0022
same,increase in dead-cell fraction,BSJ-03-123 [9]; 0.003162 µM,-0.0076
same,increase in dead-cell fraction,BSJ-03-123 [9]; 0.01 µM,-0.0082
same,increase in dead-cell fraction,BSJ-03-123 [9]; 0.03162 µM,-0.0024
same,increase in dead-cell fraction,BSJ-03-123 [9]; 0.1 µM,0.0042
same,increase in dead-cell fraction,BSJ-03-123 [9]; 0.3162 µM,-0.0019
same,increase in dead-cell fraction,BSJ-03-123 [9]; 1 µM,-0.0038
same,increase in dead-cell fraction,BSJ-03-123 [9]; 3.162 µM,0.0046
same,increase in dead-cell fraction,BSJ-03-123 [9]; 10 µM,0.317
same,increase in dead-cell fraction,Neratinib/HKI272 [10]; 0.0003162 µM,0.0098
same,increase in dead-cell fraction,Neratinib/HKI272 [10]; 0.001 µM,0.0142
same,increase in dead-cell fraction,Neratinib/HKI272 [10]; 0.003162 µM,0.015
same,increase in dead-cell fraction,Neratinib/HKI272 [10]; 0.01 µM,0.0157
same,increase in dead-cell fraction,Neratinib/HKI272 [10]; 0.03162 µM,0.0249
same,increase in dead-cell fraction,Neratinib/HKI272 [10]; 0.1 µM,0.0312
same,increase in dead-cell fraction,Neratinib/HKI272 [10]; 0.3162 µM,0.0482
same,increase in dead-cell fraction,Neratinib/HKI272 [10]; 1 µM,0.0703
same,increase in dead-cell fraction,Neratinib/HKI272 [10]; 3.162 µM,0.147
